# Measurements reported in patent US20040266732A1, “Therapeutic agents, methods, and treatments” (priority 2002, published 2004).
# pIC50: −log10 of the molar value.
# Experiments:
# Assay in all cases: NCI 60 cell-line test
# Type in all cases: cell-based, human
# ACHN = ACHN (Renal Cancer)
# Procedure: (§1) Methodology: The NCI conducted a test of the MT103 drug against 60 human cell lines, with a minimum of five concentrations of MT103 at 10-fold dilutions. A 48 hour continuous drug exposure was used, and a sulforhodamine B (SRB) protein assay was used to estimate cell viability and growth. The human tumor cell lines of the cancer screening panel were grown in RPMI 1640 medium containing 5% fetal bovine serum and 2 mM L-glutamine. Cells were inoculated into 96 well microtiter plates in 100 μL at plating densities ranging from 5,000 to 40,000 cells/well depending on the doubling time of individual cell lines. After cell inoculation, the microtiter plates are incubated at 37° C., 5% CO2, 95% air, and 100% relative humidity for 24 h prior to addition of experimental drugs.
# (§2) After 24 h, two plates of each cell line were fixed in situ with TCA, to represent a measurement of the cell population for each cell line at the time of drug addition (Tz). MT103 was solubilized in dimethyl sulfoxide at 400-fold the desired final maximum test concentration and stored frozen prior to use. At the time of drug addition, an aliquot of frozen concentrate was thawed and diluted to twice the desired final maximum test concentration with complete medium containing 50 μg/ml gentamicin. Additional four, 10-fold or ½ log serial dilutions were made to provide a total of five drug concentrations plus control. Aliquots of 100 μl of these different drug dilutions were added to the appropriate microtiter wells already containing 100 μl of medium, resulting in the required final drug concentrations.
# (§3) Following drug addition, the plates were incubated for an additional 48 h at 37° C., 5% CO2, 95% air, and 100% relative humidity. For adherent cells, the assay was terminated by the addition of cold TCA. Cells were fixed in situ by the gentle addition of 50 μl of cold 50% (w/v) TCA (final concentration, 10% TCA) and incubated for 60 minutes at 4° C. The supernatant was discarded, and the plates were washed five times with tap water and air dried. Sulforhodamine B (SRB) solution (100 μl) at 0.4% (w/v) in 1% acetic acid was added to each well, and plates were incubated for 10 minutes at room temperature. After staining, unbound dye was removed by washing five times with 1% acetic acid and the plates were air-dried. Bound stain was subsequently solubilized with 10 mM trizma base, and the absorbance was read on an automated plate reader at a wavelength of 515 nm. For suspension cells, the methodology was the same except that the assay was terminated by fixing settled cells at the bottom of the wells by gently adding 50 μl of 80% TCA (final concentration, 16% TCA). Using the seven absorbance measurements (time zero, (Tz), control growth, (C), and test growth in the presence of drug at the five concentration levels (Ti)), the percentage growth was calculated at each of the drug concentrations levels. Percentage growth inhibition was calculated as:
# (§4) [(Ti-Tz)/(C-Tz)]×100 for concentrations for which Ti>/=Tz
# (§5) [(Ti-Tz)/Tz]×100 for concentrations for which Ti<Tz.
# (§6) Three dose response parameters were calculated for each experimental agent. Growth inhibition of 50% (GI50) was calculated from [(Ti-Tz)/(C-Tz)]×100=50, which is the drug concentration resulting in a 50% reduction in the net protein increase (as measured by SRB staining) in control cells during the drug incubation. The drug concentration resulting in total growth inhibition (TGI) was calculated from Ti=Tz. The LC50 (concentration of drug resulting in a 50% reduction in the measured protein at the end of the drug treatment as compared to that at the beginning) indicating a net loss of cells following treatment was calculated from [(Ti-Tz)/Tz]×100=−50. Values were calculated for each of these three parameters if the level of activity is reached; however, if the effect was not reached or was exceeded, the value for that parameter was expressed as greater or less than the maximum or minimum concentration tested.
# CCRF-CEM = CCRF-CEM (Leukemia)
# Procedure: as §1, §2, §3, §4, §5, §6
# EKVX = EKVX (Non-Small Cell Lung Cancer)
# Procedure: as §1, §2, §3, §4, §5, §6
# HL-60 (TB) = HL-60 (TB) (Leukemia)
# Procedure: as §1, §2, §3, §4, §5, §6
# LOX IMVI = LOX IMVI (Melanoma)
# Procedure: as §1, §2, §3, §4, §5, §6
# M14 = M14 (Melanoma)
# Procedure: as §1, §2, §3, §4, §5, §6
# MALME-3M = MALME-3M (Melanoma)
# Procedure: as §1, §2, §3, §4, §5, §6
# MDA-MB-231/ATCC = MDA-MB-231/ATCC (Breast Cancer)
# Procedure: as §1, §2, §3, §4, §5, §6
# NCI-H522 = NCI-H522 (Non-Small Cell Lung Cancer)
# Procedure: as §1, §2, §3, §4, §5, §6
# OVCAR-3 = OVCAR-3 (Ovarian Cancer)
# Procedure: as §1, §2, §3, §4, §5, §6
# OVCAR-4 = OVCAR-4 (Ovarian Cancer)
# Procedure: as §1, §2, §3, §4, §5, §6
# SK-MEL-2 = SK-MEL-2 (Melanoma)
# Procedure: as §1, §2, §3, §4, §5, §6
# UACC-257 = UACC-257 (Melanoma)
# Procedure: as §1, §2, §3, §4, §5, §6
# UO-31 = UO-31 (Renal Cancer)
# Procedure: as §1, §2, §3, §4, §5, §6
# [1] = read-out: LC50 (the source's name)
smiles,measurement,setting,value
CC1(C)C2CC[C@@]1(CS(=O)(=O)N(C1CCCCC1)C1CCCCC1)C(O)C2 (stereo partly drawn) [MT103],TGI,ACHN,>1.00E−04
same,pIC50,ACHN; read-out: G150,4.62
same,CC50,ACHN; [1],> 100 µM
same,TGI,CCRF-CEM,>1.00E−04
same,pIC50,CCRF-CEM; read-out: G150,4.53
same,CC50,CCRF-CEM; [1],> 100 µM
same,TGI,EKVX,9.83E−05
same,pIC50,EKVX; read-out: G150,4.50
same,CC50,EKVX; [1],> 100 µM
same,TGI,HL-60 (TB),8.33E−05
same,pIC50,HL-60 (TB); read-out: G150,4.72
same,CC50,HL-60 (TB); [1],> 100 µM
same,TGI,LOX IMVI,3.95E−05
same,pIC50,LOX IMVI; read-out: G150,4.72
same,CC50,LOX IMVI; [1],82.3 µM
same,TGI,M14,>1.00E−04
same,pIC50,M14; read-out: G150,4.17
same,CC50,M14; [1],> 100 µM
same,TGI,MALME-3M,4.44E−05
same,pIC50,MALME-3M; read-out: G150,4.88
same,CC50,MALME-3M; [1],> 100 µM
same,TGI,MDA-MB-231/ATCC,4.71E−05
same,pIC50,MDA-MB-231/ATCC; read-out: G150,4.77
same,CC50,MDA-MB-231/ATCC; [1],> 100 µM
same,TGI,NCI-H522,5.50E−05
same,pIC50,NCI-H522; read-out: G150,4.67
same,CC50,NCI-H522; [1],> 100 µM
same,TGI,OVCAR-3,6.30E−05
same,pIC50,OVCAR-3; read-out: G150,4.64
same,CC50,OVCAR-3; [1],> 100 µM
same,TGI,OVCAR-4,>1.00E−04
same,pIC50,OVCAR-4; read-out: G150,4.52
same,CC50,OVCAR-4; [1],> 100 µM
same,TGI,SK-MEL-2,6.77E−05
same,pIC50,SK-MEL-2; read-out: G150,4.59
same,CC50,SK-MEL-2; [1],> 100 µM
same,TGI,UACC-257,9.53E−05
same,pIC50,UACC-257; read-out: G150,4.55
same,CC50,UACC-257; [1],> 100 µM
same,TGI,UO-31,8.94E−05
same,pIC50,UO-31; read-out: G150,4.55
same,CC50,UO-31; [1],> 100 µM
